# Results published in patent publication US20250345370A1, “MICROBIAL LIBERATION OF N-METHYLSEROTONIN FROM ORANGE FIBER” (Washington University, priority 2022, published 2025).
# Read-outs that look alike come from different tables or passages of the source.
# Assays:
# 5-Htr7 = 5-Htr7 (Homo sapiens, UniProt P34969); conditions: in vitro studies; cited from earlier work
# [1] = N-methylserotonin in drinking water of germ-free mice: body weight, epididymal fat, intake, survival; format: in vivo, germ-free C57BL/6J mice; conditions: for epididymal fat mass: vs untreated controls
# Description: For experiments involving administration of N-methylserotonin to germ-free mice, a stock solution of the compound (100 mg/mL, Santa Cruz Biotechnologies) was prepared in sterile water and filter sterilized ([…]; Nalgene). The outer surface of tubes containing the stock solution was sterilized with Clidox (Pharmacal) and the tubes were introduced into gnotobiotic isolators using standard procedures. The stock solution was then diluted in darkened glass water bottles (Ancare) in order to administer doses of 1 mg/kg/day or 50 mg/kg/day (based on an experimentally determined average consumption of 5 mL of water/day/mouse). Every four days, bottles were replaced with new ones containing fresh N-methylserotonin. Each of the three arms of the experiment, including the control arm where unsupplemented drinking water was administered, consisted of 5 mice.
# Fecal samples and body weights were collected weekly, while food and water intake were monitored daily by comparing pellet mass in the food hopper and the volume of water in water bottles at the beginning and end of a 24 h period and dividing these values by the number of mice per cage. All animals were euthanized between 0830 h and 0930 h without prior fasting. Luminal contents from the proximal and distal halves of the small intestine, the cecum and the colon, host tissues (liver, epididymal fat pads, gastrocnemius muscle, the distal quarter of the small intestine (ileum), cecum and entire colon) plus serum were collected, flash frozen in liquid nitrogen and stored at −80° C. prior to analyses.
# Host effects of N-methylserotonin. To characterize the effects of N-methylserotonin on host physiology and metabolism, 12-week-old germ-free C57BL/6J mice were fed the unsupplemented HiSF-LoFV diet and administered N-methylserotonin via their drinking water at doses of 1 mg/kg/day or 50 mg/kg/day for 21 days (FIG. 2A). The 1 mg/kg/day dose was experimentally determined to result in fecal N-methylserotonin levels that were equivalent to those documented in mice colonized with the 14-member community consuming the orange fiber-supplemented HiSF-LoFV diet (133.5±15 ng/g versus 131±19 ng/g feces, respectively; p=0.92, unpaired t-test). The 50 mg/kg/d dose was equivalent to the estimated total amount of N-methylserotonin consumed each day in the 10% orange fiber-containing diet (based on the yield obtained after in vitro enzymatic digestion of the fiber with T. reesei cellulase).
# [2] = methanol, 50 mg orange fiber
# [3] = Targeted LC-QqQ-MS of N-methylserotonin levels in gut contents, tissues, plasma and feces of gnotobiotic mice
# liver gene expression = test: RNA-Seq of liver of germ-free mice treated with 50 mg/kg/d N-methylserotonin; format: in vivo, germ-free C57BL/6J mice
# Description: RNA-Seq of liver and colonic tissue. Frozen tissue was broken into small pieces and ground into a very fine powder under liquid nitrogen using a mortar and pestle. A 25 mg aliquot of powdered tissue was then aliquoted into shearing matrix F (MP Bio) pre-chilled in liquid nitrogen; 0.5 mL of buffer LBP (Takara) was added immediately and the mixture was placed on a 4° C. cold block. Samples were then disrupted (Biospec bead beater; 2 minutes). The remaining steps in the RNA isolation procedure were performed using a Takara Nucleospin RNA Plus kit. […] Libraries were sequenced using an Illumina Hi-Seq instrument (paired end 75 nucleotide reads; 1.43×10^7±3.74×10^6 reads/liver sample, and 3.27×10^7±1.23×10^6 reads/colon sample). Reads were aligned to the Mus musculus GRCm39 genome assembly with STAR version 2.7.0d. Gene count data were generated from the number of uniquely aligned reads (featureCounts Subread version 1.6.2a). The R package DESEQ2 was used to perform differential gene expression analysis; results were filtered based on an adjusted Benjamini and Hochberg FDR p-value<0.05. Gene set enrichment analysis was carried out using ClusterProfiler with an adjusted p-value cut-off of <0.05 and minimum gene-set size of 3; over-representation was carried out using a loge fold-change cut-off of >1.
# Per2 promotes glycogen synthesis. Moreover, genetically engineered disruption of Per3 is associated with resistance to leptin with resulting weight gain, while its deletion directly leads to increased adipogenesis. […] Nfil3 serves as an important link between the gut microbiota, intestinal epithelial lipid metabolism and body composition. […] Moreover, genetic ablation of Nfil3 attenuates high fat diet-induced obesity in mice.
# 5-HT2A receptor = molecular target: T1, 5-HT2A receptor (Rattus norvegicus, UniProt P14842); conditions: cultured rat muscle, agonist activity on the 5-HT2A receptor; cited from earlier work
# T1 construct: increase glucose uptake in cultured rat muscle via its agonist activity on the 5-HT2A receptor; host or cells: cultured rat muscle
# [4] = 14-member consortium, 10% orange fiber diet
# Sequence of 5-Htr7 (P34969 whole entry): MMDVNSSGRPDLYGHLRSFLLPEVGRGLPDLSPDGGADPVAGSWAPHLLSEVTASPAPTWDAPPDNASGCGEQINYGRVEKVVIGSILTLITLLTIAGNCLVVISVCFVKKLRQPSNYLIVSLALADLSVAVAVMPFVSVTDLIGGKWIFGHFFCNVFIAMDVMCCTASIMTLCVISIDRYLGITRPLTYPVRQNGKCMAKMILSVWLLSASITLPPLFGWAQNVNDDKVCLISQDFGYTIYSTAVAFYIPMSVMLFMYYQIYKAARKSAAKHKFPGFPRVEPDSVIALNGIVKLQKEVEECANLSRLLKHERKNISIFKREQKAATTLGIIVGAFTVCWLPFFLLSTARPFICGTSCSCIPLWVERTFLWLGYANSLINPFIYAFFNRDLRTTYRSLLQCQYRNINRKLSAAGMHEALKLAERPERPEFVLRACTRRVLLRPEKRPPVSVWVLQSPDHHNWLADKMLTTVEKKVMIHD
# T1 sequence (P14842 whole entry): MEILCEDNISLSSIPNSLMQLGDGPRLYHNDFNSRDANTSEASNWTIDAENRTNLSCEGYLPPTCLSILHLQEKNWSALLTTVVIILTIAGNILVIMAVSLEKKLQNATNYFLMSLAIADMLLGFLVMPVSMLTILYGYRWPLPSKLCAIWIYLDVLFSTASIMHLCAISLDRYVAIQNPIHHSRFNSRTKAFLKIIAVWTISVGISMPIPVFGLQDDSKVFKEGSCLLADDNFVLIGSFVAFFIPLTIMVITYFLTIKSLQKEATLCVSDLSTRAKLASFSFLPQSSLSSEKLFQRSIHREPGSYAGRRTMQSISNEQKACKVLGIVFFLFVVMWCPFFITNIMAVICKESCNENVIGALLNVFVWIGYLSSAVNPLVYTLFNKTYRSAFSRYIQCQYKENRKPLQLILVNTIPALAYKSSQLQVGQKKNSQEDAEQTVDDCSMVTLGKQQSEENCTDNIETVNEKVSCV
structure (smiles),measurement,setting,value
CNCCc1c[nH]c2ccc(O)cc12 [N-methylserotonin],binding,5-Htr7,binds
same,epididymal fat mass,[1]; 1 mg/kg/day (lower dose),not the lower dose
same,epididymal fat mass,[1]; 50 mg/kg/day (higher dose),statistically significant reduction
same,mortality,"[1]; 50 mg/kg/day group, 5 mice",one animal died within the first week
same,weight gain,"[1]; drinking water, 21 days, vs untreated",statistically significant decrease in weight gain
same,food and water intake,"[1]; measured daily, all three groups",remained consistent
same,N-methylserotonin released after two rounds of extraction,[2],31 ng
same,N-methylserotonin released in total after 15 rounds,[2],171 ng
same,N-methylserotonin recovered,[2]; Extraction 1,16 ng
same,N-methylserotonin recovered,[2]; Extraction 2,15 ng
same,N-methylserotonin recovered,[2]; Extraction 3,16 ng
same,N-methylserotonin recovered,[2]; Extraction 4,15 ng
same,N-methylserotonin recovered,[2]; Extraction 5,14 ng
same,N-methylserotonin recovered,[2]; Extraction 6,13 ng
same,N-methylserotonin recovered,[2]; Extraction 7,12 ng
same,N-methylserotonin recovered,[2]; Extraction 8,10 ng
same,N-methylserotonin recovered,[2]; Extraction 9,11 ng
same,N-methylserotonin recovered,[2]; Extraction 10,10 ng
same,N-methylserotonin recovered,[2]; Extraction 11,9 ng
same,N-methylserotonin recovered,[2]; Extraction 12,9 ng
same,N-methylserotonin recovered,[2]; Extraction 13,8 ng
same,N-methylserotonin recovered,[2]; Extraction 14,7 ng
same,N-methylserotonin recovered,[2]; Extraction 15,6 ng
same,fecal N-methylserotonin levels,"[3]; 14-member community, orange fiber-supplemented HiSF-LoFV diet",131±19 ng/g feces
same,N-methylserotonin in cecal contents,[3]; [4],173 ± 14 ng/g
same,N-methylserotonin in cecal tissue,[3]; [4],130 ± 13 ng/g
same,N-methylserotonin in colonic contents,[3]; [4],139 ± 13 ng/g
same,N-methylserotonin in colonic tissue,[3]; [4],164 ± 25 ng/g
same,N-methylserotonin in plasma,[3]; [4],1.22 ± 0.76 ng/mL
same,"N-methylserotonin in small intestine, liver, gastrocnemius muscle and kidney",[3]; [4],< 1 ng/g
same,N-methylserotonin in cecal or colonic contents or intestinal and extra-intestinal tissues,"[3]; 14-member consortium, 10% pea fiber diet, below limits of detection",< 0.5 ng/g
same,fecal N-methylserotonin levels,"[3]; germ-free mice, 1 mg/kg/day in drinking water",133.5 ± 15 ng/g
same,hepatic levels of Nfil3 mRNA,liver gene expression; 50 mg/kg/d vs untreated,statistically significantly decreased
same,liver expression of Arntl and Clock,liver gene expression; 50 mg/kg/d vs untreated,significantly decreased expression
same,"liver expression of Per2, Per3, and Nr1d2",liver gene expression; 50 mg/kg/d vs untreated,significant increases in expression
same,number of genes with statistically significant differences in expression in liver,"liver gene expression; 50 mg/kg/d vs untreated, FDR adjusted p<0.05",716 genes
same,"log2 fold-change, 0610005C13Rik (Entrez 71661)",liver gene expression; upregulated gene in liver: 0610005C13Rik,0.39
same,"log2 fold-change, 2810013P06Rik (Entrez 100503178)",liver gene expression; upregulated gene in liver: 2810013P06Rik,0.57
same,"log2 fold-change, 4930523C07Rik (Entrez 67647)",liver gene expression; upregulated gene in liver: 4930523C07Rik,0.33
same,"log2 fold-change, Arl13b (Entrez 68146)",liver gene expression; upregulated gene in liver: Arl13b,0.37
same,"log2 fold-change, Ccne2 (Entrez 12448)",liver gene expression; upregulated gene in liver: Ccne2,0.70
same,"log2 fold-change, Clic1 (Entrez 114584)",liver gene expression; upregulated gene in liver: Clic1,0.35
same,"log2 fold-change, Crebrf (Entrez 77128)",liver gene expression; upregulated gene in liver: Crebrf,0.32
same,"log2 fold-change, Dixdc1 (Entrez 330938)",liver gene expression; upregulated gene in liver: Dixdc1,0.32
same,"log2 fold-change, Fam50a (Entrez 108160)",liver gene expression; upregulated gene in liver: Fam50a,0.41
same,"log2 fold-change, Fam126b (Entrez 213056)",liver gene expression; upregulated gene in liver: Fam126b,0.31
same,"log2 fold-change, Hebp1 (Entrez 15199)",liver gene expression; upregulated gene in liver: Hebp1,0.38
same,"log2 fold-change, Ihh (Entrez 16147)",liver gene expression; upregulated gene in liver: Ihh,0.74
same,"log2 fold-change, Kyat1 (Entrez 70266)",liver gene expression; upregulated gene in liver: Kyat1,0.24
same,"log2 fold-change, Map1lc3b (Entrez 67443)",liver gene expression; upregulated gene in liver: Map1lc3b,0.28
same,"log2 fold-change, Mbtd1 (Entrez 103537)",liver gene expression; upregulated gene in liver: Mbtd1,0.48
same,"log2 fold-change, Mxi1 (Entrez 17859)",liver gene expression; upregulated gene in liver: Mxi1,0.29
same,"log2 fold-change, Pdcd4 (Entrez 18569)",liver gene expression; upregulated gene in liver: Pdcd4,0.36
same,"log2 fold-change, Pnldc1 (Entrez 240023)",liver gene expression; upregulated gene in liver: Pnldc1,0.83
same,"log2 fold-change, Prkag2 (Entrez 108099)",liver gene expression; upregulated gene in liver: Prkag2,0.36
same,"log2 fold-change, Rcl1 (Entrez 59028)",liver gene expression; upregulated gene in liver: Rcl1,0.28
same,"log2 fold-change, Rps15 (Entrez 20054)",liver gene expression; upregulated gene in liver: Rps15,0.38
same,"log2 fold-change, Serpina7 (Entrez 331535)",liver gene expression; upregulated gene in liver: Serpina7,0.41
same,"log2 fold-change, Smarcd2 (Entrez 83796)",liver gene expression; upregulated gene in liver: Smarcd2,0.27
same,"log2 fold-change, Syne3 (Entrez 212073)","liver gene expression; upregulated gene in liver: Syne3, treated vs untreated germ-free mice",0.57
same,"log2 fold-change, Tbc1d10a (Entrez 103724)",liver gene expression; upregulated gene in liver: Tbc1d10a,0.61
same,"log2 fold-change, Tedc2 (Entrez 72016)",liver gene expression; upregulated gene in liver: Tedc2,0.43
same,"log2 fold-change, Ube2b (Entrez 22210)",liver gene expression; upregulated gene in liver: Ube2b,0.41
same,"log2 fold-change, Uchl5 (Entrez 56207)",liver gene expression; upregulated gene in liver: Uchl5,0.34
same,"log2 fold-change, Zc3h6 (Entrez 78751)",liver gene expression; upregulated gene in liver: Zc3h6,0.63
same,"log2 fold-change, Zfp64 (Entrez 22722)",liver gene expression; upregulated gene in liver: Zfp64,0.41
same,"log2 fold-change, Zfp960 (Entrez 449000)",liver gene expression; upregulated gene in liver: Zfp960,0.60
same,glucose uptake,5-HT2A receptor,able to increase glucose uptake
